Experimental data from ChEMBL document CHEMBL4665904, “Novel APOL1 Inhibitors for Treating Kidney Diseases” (ACS Med Chem Lett, 2020).
pIC50: −log10 of the molar value.

Experiments:
[1] = target: T1, Apolipoprotein L1 (Homo sapiens, UniProt O14791); assay: Inhibition of APOL1 (unknown origin) in HEK293 cells assessed as thallium influx incubated for 30 mins by FLIPR based thallium influx assay; format: cell-based
T1 sequence (O14791 whole entry): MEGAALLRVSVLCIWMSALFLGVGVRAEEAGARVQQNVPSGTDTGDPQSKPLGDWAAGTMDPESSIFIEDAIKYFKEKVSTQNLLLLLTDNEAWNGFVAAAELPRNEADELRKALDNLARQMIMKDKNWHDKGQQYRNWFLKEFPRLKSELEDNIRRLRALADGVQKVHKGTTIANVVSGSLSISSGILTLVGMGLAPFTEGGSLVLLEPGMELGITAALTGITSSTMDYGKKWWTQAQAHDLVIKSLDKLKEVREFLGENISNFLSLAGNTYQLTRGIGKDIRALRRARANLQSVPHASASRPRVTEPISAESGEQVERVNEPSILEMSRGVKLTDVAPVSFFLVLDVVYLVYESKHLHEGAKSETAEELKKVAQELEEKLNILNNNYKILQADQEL

[2] = system: Trypanosoma brucei; assay: Trypanocidal activity against bloodstream forms of Trypanosoma brucei using recombinant APOL1 assessed as cell viability incubated for 16 hrs by cell lysis based alamar blue assay; format: functional, organism-based

SMILES	pIC50 [1]	pIC50 [2]
O=C(CCc1c(-c2ccccc2)[nH]c2c(F)cccc12)N[C@@H]1C(=O)NC[C@H]1O	> 6.60	> 6.60
O=C(CCc1c(-c2ccc(F)cc2)[nH]c2c(F)cc(F)cc12)N[C@@H]1C(=O)NC[C@@H]1O	> 6.60	> 6.60
O=C(CCc1c(-c2ccccc2)[nH]c2cc(F)c(F)cc12)N[C@@H]1C(=O)NC[C@H]1O	> 6.60	> 6.60
COc1ccc(-c2[nH]c3ccccc3c2CCC(=O)N[C@@H]2C(=O)NC[C@H]2O)cc1	> 6.60	> 6.60
N#Cc1ccc(-c2[nH]c3c(F)cc(F)cc3c2CCC(=O)N[C@H]2CCNC2=O)cc1	> 6.60	> 6.60
N#Cc1cc(F)cc2c(CCC(=O)N[C@@H]3C(=O)NC[C@H]3O)c(-c3ccc(F)cc3)[nH]c12	> 6.60	> 6.60
